One data set deals with S. aureus (ATCC 25923). Particulars: DapS strain; MIC90, broth microdilution, MHB + 50 mg L^−1 calcium, inoculum 1×10^5–5×10^5 CFU/mL, 35 °C, 22 h, A600, triplicate; converted from μM.
For data set [1], the system named is S. aureus (MRSA, ATCC 700787). The note with it: DapS, MIC90, broth microdilution, MHB + 50 mg L^−1 calcium, 35 °C, 22 h, A600, triplicate. In general terms: Broth dilution looks for growth in wells or tubes with falling amounts of substance.
Data set [2] relates to S. epidermidis (ATCC 12228). Particulars: DapS; MIC90, broth microdilution, MHB + 50 mg L^−1 calcium, 35 °C, 22 h, A600, triplicate.
For data set [3], the system named is E. faecalis (hVRE, ATCC 700802). Particulars: for MIC: DapS, VRE, MIC90, broth microdilution, MHB + 50 mg L^−1 calcium, 35 °C, 22 h, A600, triplicate.
The test system of the next data set is S. aureus (hVISA, SR220). The note with it: DapS, VISA, BEI NR-50512; MIC90, broth microdilution, MHB + 50 mg L^−1 calcium, 35 °C, 22 h, A600, triplicate.
For data set [4], the system named is S. aureus (hVISA, SR3777). Particulars: DapS, BEI NR-50509; MIC90, broth microdilution, MHB + 50 mg L^−1 calcium, 35 °C, 22 h, A600, triplicate.
The subject of another data set is E. faecalis (S613). Particulars: DapS, BEI HM-334; MIC90, broth microdilution, MHB + 50 mg L^−1 calcium, 35 °C, 22 h, A600, triplicate.
For another data set, the system named is E. faecalis (R712). The note with it: DapR, BEI HM-335; MIC90, broth microdilution, MHB + 50 mg L^−1 calcium, 35 °C, 22 h, A600, triplicate.
Data set [5] deals with S. aureus (SAUSA300_1713 NE573). Particulars: DapR, strain JE2 transposon mutant NE573, BEI NR-47116; MIC90, broth microdilution, MHB + 50 mg L^−1 calcium, 35 °C, 22 h, A600, triplicate.
Data set [6] relates to S. aureus (SAUSA300_1715 NE1656). The note with it: DapR, strain JE2 transposon mutant NE1656, BEI NR-48198; MIC90, broth microdilution, MHB + 50 mg L^−1 calcium, 35 °C, 22 h, A600, triplicate.
Data set [7] is classed as physicochemical. The text has this: These differences in activity could be due to differences between the structures of Dap and its analogs either in complex with Gram-positive membranes or in their unbound form. However, with no three-dimensional structure data for the analogs, only conjecture can be offered as to the cause. […] [2004]; Jung et al. [2004]), the benzene ring of Trp is thought to stick out away from the peptide core and lie roughly parallel to the main axis of the acyl tail. […] [2017]), which also suffered from a decrease in activity compared with its N1-normal-prenylated regioisomer. Conversely, the diene moieties attached at the C2 position are prone to conjugate addition reactions which would prevent the proper binding conformation or even enable degradation pathways. Therefore, to check their stability, all purified Dap analogs were reinjected on RP-HPLC after their structural and activity characterization (see Supporting Information Fig. S3). […] While future kinetic and engineering studies will likely answer these questions, the SAR identified in this study will inform future Dap development efforts using the […]-based diversification scheme.

The test system of data set [8] is S. aureus (hVISA, SR4035). Particulars: DapS, BEI NR-50510; MIC90, broth microdilution, MHB + 50 mg L^−1 calcium, 35 °C, 22 h, A600, triplicate.

The results in this text go back to paper PMC7447621, “Chemoenzymatic synthesis of daptomycin analogs active against daptomycin-resistant strains” (Applied Microbiology and Biotechnology, 2020).

As a reminder, the MIC is the lowest concentration that inhibits growth of the organism.

Several values for one entry are separate records, joined by “and”; a condition that tells them apart may be missing. Equal values may be shown once. Numbered stars: 1 amine (or outer) side, 2 acyl side, 3 side chain; on linkers, the order of the positions; unused ones are H or OH. Bridge positions count the residues as written; N and C are the ends. Square brackets hold non-standard residues; d marks the D form. Peptide text beside a SMILES is read from it. * marks the point of attachment. X5 = C=C(C)/C=C/C(C)c1[nH]c2ccccc2c1C[C@H](N[*:1])C(=O)[*:2]; X1 = O=C([C@H](Cc1c[nH]c2cc(CC3=CCCCC3)ccc12)N[*:1])[*:2]; X3 = C=C/C=C/Cc1[nH]c2ccccc2c1C[C@H](N[*:1])C(=O)[*:2]; Glu(3R-Me) = C[C@H](CC(=O)O)[C@H](N)C(=O)O; Kyn = Nc1ccccc1C(=O)C[C@H](N)C(=O)O; Decanoyl = CCCCCCCCCC(=O)*; Orn = NCCC[C@H](N)C(=O)O

Regarding `C=C(C)/C=C/C(C)c1[nH]c2ccccc2c1C[C@H](NC(=O)CCCCCCCCC)C(=O)N[C@H](CC(N)=O)C(=O)N[C@@H](CC(=O)O)C(=O)N[C@@H]1C(=O)NCC(=O)N[C@@H](CCCN)C(=O)N[C@@H](CC(=O)O)C(=O)N[C@H](C)C(=O)N[C@@H](CC(=O)O)C(=O)NCC(=O)N[C@H](CO)C(=O)N[C@@H]([C@H](C)CC(=O)O)C(=O)N[C@@H](CC(=O)c2ccccc2N)C(=O)O[C@@H]1C` (stereo partly drawn) [compound 47, C2R-18-Dap] (Decanoyl-[X5][dN]DTG[Orn]D[dA]DG[dS][Glu(3R-Me)][Kyn]; ester 4-C), the MIC is above 34.3 µg/mL with S. aureus (ATCC 25923); above 34.3 µg/mL in data set [1]; 34.3 µg/mL in [2]; 34.3 µg/mL in data set [3]; above 34.3 µg/mL with S. aureus (hVISA, SR220); 34.3 µg/mL in data set [4]. The minimum inhibitory concentration (MIC) (in the data set with E. faecalis (S613); in the data set on E. faecalis (R712); in data set [5]; in [6]) was above 34.3 µg/mL each time.

As to `CCCCCCCCCC(=O)N[C@@H](Cc1c[nH]c2cc(CC3=CCCCC3)ccc12)C(=O)N[C@H](CC(N)=O)C(=O)N[C@@H](CC(=O)O)C(=O)N[C@@H]1C(=O)NCC(=O)N[C@@H](CCCN)C(=O)N[C@@H](CC(=O)O)C(=O)N[C@H](C)C(=O)N[C@@H](CC(=O)O)C(=O)NCC(=O)N[C@H](CO)C(=O)N[C@@H]([C@H](C)CC(=O)O)C(=O)N[C@@H](CC(=O)c2ccccc2N)C(=O)O[C@@H]1C` [compound 52, C6-20-Dap] (Decanoyl-[X1][dN]DTG[Orn]D[dA]DG[dS][Glu(3R-Me)][Kyn]; ester 4-C), the “fold enhanced activity (compared with Dap)” value in data set [3] (vancomycin-resistant Enterococcus, Table 1, Fig. S1) is reported as 5–15 fold. The minimum inhibitory concentration (MIC) is 0.5 µg/mL in the data set with S. aureus (hVISA, SR220); 0.3 to 0.6 µg/mL and 0.4 µg/mL in the data set on E. faecalis (S613); 6.2 µg/mL in the data set with E. faecalis (R712); 0.4 µg/mL in data set [5]; 0.2 µg/mL in data set [6]. For the same compound, the MIC range with DapR S. aureus (DapR S. aureus strains (Table 1), range over the named analogs and strains) lay within 0.2 to 0.5 µg/mL. For the same compound, the “fold improvement in antibacterial activity over Dap” value in the data set on DapR S. aureus (DapR S. aureus, relative potency, Fig. S1) was 30–80 fold.

As to `C=C/C=C/Cc1[nH]c2ccccc2c1C[C@H](NC(=O)CCCCCCCCC)C(=O)N[C@H](CC(N)=O)C(=O)N[C@@H](CC(=O)O)C(=O)N[C@@H]1C(=O)NCC(=O)N[C@@H](CCCN)C(=O)N[C@@H](CC(=O)O)C(=O)N[C@H](C)C(=O)N[C@@H](CC(=O)O)C(=O)NCC(=O)N[C@H](CO)C(=O)N[C@@H]([C@H](C)CC(=O)O)C(=O)N[C@@H](CC(=O)c2ccccc2N)C(=O)O[C@@H]1C` [compound 45, C2-15-Dap] (Decanoyl-[X3][dN]DTG[Orn]D[dA]DG[dS][Glu(3R-Me)][Kyn]; ester 4-C), the “stability of the purified product (RP-HPLC chromatogram)” value in data set [7] is “significant degradation”. Moreover, the MIC in the data set with S. aureus (ATCC 25923) was 16.9 µg/mL; in data set [1], above 33.7 µg/mL; in data set [2] it was 16.9 µg/mL; in data set [3] it was 33.7 µg/mL; in the data set with S. aureus (hVISA, SR220) it was 33.7 µg/mL; in data set [4], 16.9 µg/mL. Besides, the minimum inhibitory concentration (MIC) in [8] is above 33.7 µg/mL; in the data set on E. faecalis (S613), above 8.4 µg/mL; with E. faecalis (R712), above 8.4 µg/mL; in data set [5] it was above 8.4 µg/mL; in [6], above 8.4 µg/mL.
